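All cell lines were grown in 96-well plates and treated with compound for 48 hours. At the GI50, growth is halved. TGI denotes the concentration required for complete inhibition of growth.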
How the values were obtained:
Assay in all cases: NCI tumour cell line growth inhibition, 48 h
[1] = test system: KM12 colon
[2] = test system: CCRF-CEM leukemia
[3] = test system: U251 CNS
[4] = test system: SK-MEL-2 melanoma
[5] = test system: SK-MEL-5 melanoma
[6] = test system: UACC-257 melanoma
[7] = test system: IGROV1 ovarian
[8] = test system: SK-MEL-28 melanoma
[9] = test system: MDA-MB-231 breast
[10] = test system: NCI-H23 lung

| Structure (SMILES) | GI50 [1] [µM] | TGI [1] [µM] | GI50 [2] [µM] | TGI [2] [µM] | GI50 [3] [µM] | TGI [3] [µM] | GI50 [4] [µM] | TGI [4] [µM] | GI50 [5] [µM] | TGI [5] [µM] | GI50 [6] [µM] | TGI [6] [µM] | GI50 [7] [µM] | TGI [7] [µM] | GI50 [8] [µM] | TGI [8] [µM] | GI50 [9] [µM] | TGI [9] [µM] | TGI [10] [µM] | GI50 [10] [µM] |
| --- | --- | --- | --- | --- | --- | --- | --- | --- | --- | --- | --- | --- | --- | --- | --- | --- | --- | --- | --- | --- |
| CCN(C(=O)CCl)C(C)(C)C(SSSC(c1ccc(Cl)cc1)C(C)(C)N(CC)C(=O)CCl)c1ccc(Cl)cc1 (centres undefined) | 10.3 | 23 | 2.45 | 5.93 | 4.72 | 17.7 | 6.14 | 18.7 | 6.92 | 20.2 | 1.82 | 3.48 | 10.9 | 31.5 | 2.05 | 4.31 | 3.58 | 14.6 | – | – |
| COc1cc(C(=O)C/C(CCC(=O)Nc2ccc(Cl)cc2Cl)=N/NC(=O)C(N)=O)ccc1O | – | > 100 | – | > 100 | – | > 100 | – | > 100 | – | > 100 | – | > 100 | – | > 100 | – | > 100 | – | – | > 100 | – |
| CC1=CC2=C(C(N)=O)C(=O)OC2(C)C(c2ccccc2)C1 (centres undefined) | – | > 100 | – | – | – | > 100 | – | > 100 | – | – | – | > 100 | – | > 100 | – | > 100 | – | > 100 | – | – |
| Cc1nc(-c2nc(C)c(C(=O)NN(C)C)s2)sc1C(=O)NN(C)C | – | > 100 | – | > 100 | – | > 100 | – | > 100 | – | > 100 | – | > 100 | – | > 100 | – | > 100 | – | – | > 100 | – |
| CC1=C(C(=O)CC(=O)C(=O)Nc2ccccc2)Sc2ccccc2N1 | – | > 100 | – | > 100 | – | > 100 | – | > 100 | – | > 100 | – | > 100 | – | > 100 | – | > 100 | – | – | > 100 | – |
| Nc1ccc2c(c1)CC1c3ccccc3C(C2)c2ccccc21 | – | > 100 | – | > 100 | – | > 100 | – | > 100 | – | > 100 | – | > 100 | – | > 100 | – | – | – | – | – | – |
| CCOC(=O)C(Cc1ccccc1)NC(=O)OC(C)(C)C (centres undefined) | – | > 100 | – | > 100 | – | > 100 | – | > 100 | – | – | – | > 100 | – | > 100 | – | > 100 | – | – | > 100 | – |
| O=C(/C=C/c1ccccc1O)c1cccnc1 | – | > 100 | – | > 100 | – | > 100 | – | > 100 | – | > 100 | – | > 100 | – | > 100 | – | > 100 | – | – | > 100 | – |
| CC(=O)C1C(=O)C(=O)N(c2ccccc2N2C(=O)C(=O)C(C(C)=O)C2=O)C1=O (centres undefined) | – | > 100 | – | > 100 | – | > 100 | – | > 100 | – | > 100 | – | > 100 | – | > 100 | – | > 100 | – | – | > 100 | – |
| Cc1ccc(S(=O)(=O)SCc2ccccc2CSS(=O)(=O)c2ccc(C)cc2)cc1 | – | > 100 | – | – | – | 89.5 | – | – | – | > 100 | – | > 100 | – | > 100 | – | 36.6 | – | – | 46.4 | – |
| O=C1[C@@H]2C3SC(c4ccccc43)[C@@H]2C(=O)N1c1ccccc1 | – | > 100 | – | > 100 | – | > 100 | – | > 100 | – | > 100 | – | > 100 | – | > 100 | – | > 100 | – | – | > 100 | – |
| CC(=O)OCC1OC(n2c(=O)n(-c3ccccc3)c(=O)c3cc(Br)cc(Br)c32)C(OC(C)=O)C(OC(C)=O)C1OC(C)=O (centres undefined) | – | > 100 | – | > 100 | – | > 100 | – | > 100 | – | > 100 | – | > 100 | – | > 100 | – | > 100 | – | – | > 100 | – |
| O=C(O)CCCCCO | – | > 100 | – | > 100 | – | > 100 | – | > 100 | – | > 100 | – | > 100 | – | > 100 | – | > 100 | – | – | > 100 | – |
| CCC1(C(=O)OC)CCc2c(OC)ccc(OC)c2C1=O (centres undefined) | – | > 100 | – | > 100 | – | > 100 | – | > 100 | – | > 100 | – | > 100 | – | > 100 | – | > 100 | – | – | > 100 | – |
| Cc1c(C(=O)/C=C/c2ccccc2Cl)[n+](=O)c2ccccc2n1[O-] | – | 27.3 | – | – | – | 27.4 | – | 27.3 | – | 31.9 | – | 27.2 | – | 31.6 | – | 31.6 | – | – | 28.5 | – |
| O=C(CC(=O)Nc1ccccc1O)Nc1ccccc1O | – | > 100 | – | > 100 | – | > 100 | – | – | – | 22 | – | 30 | – | > 100 | – | 27.4 | – | – | 64.3 | – |
| CC(=O)Nc1ccccc1-c1cnc2ccccc2n1 | – | > 100 | – | > 100 | – | > 100 | – | – | – | > 100 | – | > 100 | – | > 100 | – | > 100 | – | – | > 100 | – |
| Cc1ccc(C2(O)CC(c3ccc([N+](=O)[O-])o3)=NN2C(=O)COc2ccccc2Cl)cc1 (centres undefined) | – | > 100 | – | > 100 | – | 28.2 | – | 26.4 | – | 8.54 | – | 53.6 | – | > 100 | – | 45 | – | – | 33.6 | – |
| NCCCC1NC(=O)/C(=C(O)/C=C/C2CCC[C@@H]2CC2SCCS2)C1=O (some centres undefined) | – | > 100 | – | > 100 | – | > 100 | – | > 100 | – | > 100 | – | > 100 | – | > 100 | – | > 100 | – | – | > 100 | – |
| Cc1ccc2c(Nc3cccc(Cl)c3F)ncc(NC(=O)c3csc4c(N)ncnc34)c2c1 | > 20.7 | > 100 | 21.2 | > 100 | > 76.3 | > 100 | 0.0856 | > 100 | > 100 | > 100 | 0.0715 | > 100 | 0.605 | > 100 | – | – | 0.164 | > 94 | > 100 | 0.522 |
| O=Cc1ccc(Oc2c3ccccc3nc3occc23)cc1 | 8.79 | 25.4 | 13.8 | 35.4 | – | – | – | – | – | – | 12.2 | 30.1 | 24.6 | > 100 | 17.9 | 34.3 | – | 22.5 | 36 | 15 |
| CCC[CH2][Ge]([CH2]CCC)([CH2]CCC)[O]C(=O)C(OC)c1ccccc1 (centres undefined) | 26.4 | > 100 | 2.09 | > 100 | 31.4 | > 100 | 42.4 | > 100 | 17.5 | > 63.1 | 16.7 | > 100 | > 74.7 | > 100 | 52.3 | > 100 | – | – | 51.8 | 6.86 |

— PubChem BioAssay (NCI)
